# Measurements as given in PMC7371863, “Intracellular interplay between cholecystokinin and leptin signalling for satiety control in rats” (Scientific Reports, 2020).
# Read-outs that look alike come from different tables or passages of the source.
# How the values were obtained:
# [1] = tested on: pSTAT3 in C6-ObRb cells; test: Immunofluorescent staining of pSTAT3 in C6-ObRb cells; format: cell-based, rat C6 cells, mouse ObRb
# Description: Rat C6 glioma cells were cultured in Dulbecco’s Modified Eagle Medium/F12 (DMEM/F12) supplemented with 10% FBS, sodium bicarbonate (1.2 g/L), and 1% penicillin/streptomycin antibiotics at 37 °C in 5% CO2. The full-length mouse leptin receptor (ObRb) in pcDNA3.1 vector was kindly provided by Dr. Christian Bjørbaek (BIDMC, Harvard Medical School, Boston, MA, USA) and transfected using Lipofectamine 2000. Subsequently, the cells were cultured in medium containing 500 μg/mL G418 for cell selection.
# […] Cells were treatment with AG490 (1 μM) or LY294002 (50 μM) 15 min prior to the leptin stimulation until the time of fixation. These cells were fixed in 4% phosphate-buffered paraformaldehyde for 15 min and washed three times with PBS(−). The fixed samples were then incubated for 2 h at room temperature in 10% donkey serum dissolved in 0.1% Triton-X PBS(−). Next, samples were incubated with 1:100 affinity-purified rabbit phospho-STAT3 (pTyr^705) dissolved in 5% donkey serum PBS(−) for 24 h at 4 °C. After three 20-min PBS(−) rinses, samples were incubated in 1:400 Cy3-conjugated donkey anti-rabbit IgG for 2 h at room temperature. Finally, samples were rinsed with PBS(−) (four 15-min rinses on an orbital shaker) and mounted using Vectashield containing 4′,6-diamidino-2-phenylindole (DAPI).
# (§1) Images were acquired using a confocal laser-scanning microscope (Olympus FV1000 or Nikon A1R MP plus) with a laser diode (405 nm), argon laser (488 nm), and helium neon laser ([…]). The nuclear immunofluorescent intensity (8-bit depth) was analyzed using Photoshop CS 6 software.
# [2] = tested on: VMN cells; test: Ca2+ imaging in rat VMN slices; format: cell-based; conditions: for cells responding exclusively to leptin or CCK-8s, VMN (discussion): approximately, population analysis; for Rmax, Ca2+ concentration response / EC50: four-parameter Hill function; for EC50: read-out: EC50, Ca2+ concentration response
# [3] = tested on: VMN neurons; test: Whole cell patch clamp, action potential firing in VMN neurons; format: cell-based, rat; conditions: for action potential firing frequency: n.s.
# Description: The VMH slices (300-μm thickness) were prepared following deep pentobarbital anaesthesia administration to postnatal day (PD) 12–16 rats using a vibrating blade microtome in ice-cold high-Mg^2+ artificial cerebrospinal fluid (ACSF) containing 138.6 mM NaCl, 3.35 mM KCl, 21 mM NaHCO3, 0.6 mM NaH2PO4, 9.9 mM D-glucose, 0.5 mM CaCl2, and 4 mM MgCl2 bubbled with 95% O2/5% CO2. The slices were incubated at room temperature for 1 h in regular ACSF containing 2.5 mM CaCl2, and 1.0 mM MgCl2 bubbled with 95% O2/5% CO2. Subsequently, the slices were transferred to an upright microscope stage (Olympus BX50WI). The recording chamber was perfused with oxygenated normal ACSF at 3 ml/min at 34 °C. VMN neurons were visualized through an infrared CCD camera (Hamamatsu Photonics C2741-79). Neurons were recorded in the whole-cell current-clamp mode using a patch-clamp amplifier (Axon Instruments Axopatch 200B). The recordings were performed using patch pipettes with an access resistance of 4–6 MΩ and internal solution containing 135 mM potassium gluconate, 5 mM KCl, 10 mM HEPES, 0.1 mM CaCl2, 1.0 mM EGTA, 10 mM phosphocreatine, 2 mM Mg-ATP, and 0.2 mM Na-GTP (pH adjusted to 7.3 with KOH). The output of the amplifier was digitised using an A/D converter board (Axon Instruments Digidata 1200) with a sampling rate of 10 kHz and recorded on a hard disk by data acquisition software (Axon Instruments pCLAMP 8). Membrane potentials were low-pass-filtered at 2 kHz. Resting membrane potentials less than − 60 mV were set to approximately − 60 mV by current injections. Stimulants were applied by the gravity drop perfusion system. Further details of electrophysiological recordings were described previously.
# [4] = tested on: nuclear pSTAT3 in the rat VMN; test: Nuclear pSTAT3-ir in VMN after i.c.v. injection; format: in vivo
# Description: A guide cannula (cut length 5 mm, no. C315G; Plastics One Inc.) was stereotaxically implanted to the right lateral ventricle of each rat, with the coordinates of 0.8 mm posterior to the bregma, 1.4 mm lateral to the midline, and 3.3 mm ventral from the skull surface. The canula was secured on the skull surface with two stainless steel screws and dental acrylic resin. The rats were then allowed to recover in their home cage for at least 1 week. Leptin (4 µg) and CCK (2 µg) were dissolved in 4 µl ACSF and administered through an internal cannula (cut length 5.5 mm, no. C315I; Plastics One Inc. C315I). To minimize the effect of endogenous signals, the rats were deprived of food for 10 h (08:00–18:00) before i.c.v. administration. Drugs were infused at a flow rate of 1 µl/min over 4 min using a motorized syringe pump (Carnegie Medicine model CMA/102), followed by another 4 min of rest for diffusion. One hour after i.c.v. administration, the rat brain was removed for immunohistochemical analysis.
# For immunohistochemical analysis of rat hypothalamic slices, animals were deeply anesthetized with an i.p. injection of sodium pentobarbital (50 mg/kg) and transcardially perfused with PBS(−) for 5 min followed by ice-cold 4% (w/v) paraformaldehyde in PBS(−) for 15 min. The brain was removed and further fixed in the same fixative (4 °C, overnight). Then, the olfactory bulbs and/or cerebellum were removed from the brain in ice-cold PBS(−). Pre-trimmed brain tissues were immersed in 30% (w/v) sucrose and stored overnight at 4 °C. The fixed and cryoprotected brain tissues were embedded with OCT compound. Frozen sections of 30 µm thickness were cut using a cryostat microtome and washed three times with PBS(−) in 24-well plates, after which they were mounted on glass slides. […]
# as §1
# [5] = tested on: primary cultures of rat nodose ganglion neurons; conditions: CCK-8s treatment, co-stimulation with leptin; cited from earlier work
# Source text: An important observation in C6 models, other than intracellular Ca^2+ signalling, is the reduction in leptin-induced nuclear pSTAT3 accumulation by co-stimulation with CCK-8s. The level of pSTAT3 following co-stimulation with CCK-8s and leptin has been analyzed in primary cultures of rat nodose ganglion neurons[53],[54].
# [6] = tested on: porcine adrenal medullary chromaffin cells; conditions: cited from earlier work
# [7] = leptin with co-stimulation of 1 nM CCK-8s
substance,measurement,setting,value
CCK-8s [reference compound],cytosolic pSTAT3-ir,[1]; CCK-8s 50 nM,induced cytosolic pSTAT3-ir
same,nuclear pSTAT3-ir on co-stimulation versus leptin alone,"[1]; CCK-8s 50 nM with leptin 100 nM, 30 images/three dishes, p < 0.01",significantly smaller than that by leptin stimulation alone
same,nuclear intensity of pSTAT3-ir versus unstimulated controls,"[1]; CCK-8s 50 nM, 30 images/three dishes, p < 0.01",significantly smaller in the CCK-8s-treated group than in unstimulated controls
same,Ca2+ transients in slice preparation,"[2]; CCK-8s 1 nM alone, n = 216 in 18 slices",failed to evoke Ca^2+ transients
same,effect of co-stimulation on leptin-induced Ca2+ responses,"[2]; CCK-8s 1 nM with leptin 1–1,000 nM, p < 0.01 two-way ANOVA",amplified leptin-induced Ca^2+ responses
same,"cells that exclusively responded to CCK-8s, VMN","[2]; CCK-8s 10 nM versus leptin 500 nM, 11 slices, mean with standard error",5.2 ± 1.1%
same,"leptin responders also responding to CCK-8s, VMN","[2]; CCK-8s 10 nM, leptin 500 nM, 11 slices, mean with standard error",81.3 ± 9.1%
same,"cells responding exclusively to leptin or CCK-8s, VMN (discussion)",[2]; leptin 500 nM and CCK-8s 10 nM,5–12%
same,cells showing leptin-induced Ca2+ increase that also responded to CCK-8s (discussion),[2]; leptin 500 nM and CCK-8s 10 nM,more than 80%
same,action potential firing frequency,"[3]; CCK-8s 1 nM, n = 9, spontaneous 1.45 ± 0.07 Hz, − 60 mV, 34 °C",1.28 ± 0.15 Hz
same,nuclear pSTAT3 levels in VMN versus single leptin injection,[4]; CCK-8s 2 µg co-injected with leptin 4 µg i.c.v.,reduced nuclear pSTAT3 levels in the rat VMN compared with single leptin injections
same,total pSTAT3,[5],significant increase in pSTAT3
"leptin: peptide hormone secreted from white adipocyte tissue, product of the obese gene; PeproTech Cat#450-31",nuclear pSTAT3-ir,"[1]; leptin 100 nM, 30 images/three dishes, p < 0.01 one-way ANOVA",significantly increased pSTAT3-ir in the nuclei
same,"cells responding exclusively to leptin or CCK-8s, VMN (discussion)",[2]; leptin 500 nM and CCK-8s 10 nM,5–12%
same,"cells that exclusively responded to leptin, VMN","[2]; leptin 500 nM versus CCK-8s 10 nM, 11 slices, mean with standard error",12.2 ± 1.5%
same,"cells with monophasic Ca2+ increase, VMN","[2]; leptin 500 nM, 11 slices, 0.5 µM tetrodotoxin, 34 °C, mean with standard error",65.4 ± 7.5%
same,"Rmax, Ca2+ concentration response",[2]; leptin alone,0.2
same,EC50,[2]; leptin alone,153 nM
same,"Rmax, Ca2+ concentration response",[2]; leptin with 1 µM LGM,0.14
same,EC50,[2]; leptin with 1 µM LGM,163 nM
same,"Rmax, Ca2+ concentration response",[2]; [7],0.26
same,EC50,[2]; [7],42.8 nM
same,"neurons with apparent (> twofold) increase in firing frequency, co-stimulation",[3]; leptin 30 nM with CCK-8s 1 nM,Five neurons in nine recordings
same,"action potential firing frequency, co-stimulation","[3]; leptin 30 nM with CCK-8s 1 nM, n = 9, p < 0.01, spontaneous 1.45 ± 0.07 Hz, − 60 mV, 34 °C",3.49 ± 0.68 Hz
same,"highest action potential firing frequency, co-stimulation","[3]; leptin 30 nM with CCK-8s 1 nM, single neuron maximum",5.5 Hz
same,action potential firing frequency,"[3]; leptin 30 nM, n = 9, spontaneous 1.45 ± 0.07 Hz, − 60 mV, 34 °C",1.55 ± 0.13 Hz
same,number of nuclear pSTAT3-ir in VMN relative to vehicle-injected control,"[4]; leptin 4 µg i.c.v., 1 h, 10 h food-deprived, p < 0.01",three times
same,"number of nuclear pSTAT3-ir in VMN, co-administration, versus vehicle","[4]; leptin 4 µg with CCK-8s 2 µg i.c.v., 1 h, n.s.",failed to increase the number of nuclear pSTAT3-ir
same,cytosolic Ca2+ after leptin stimulation,[6],cytosolic Ca^2+ increase
